Measurements as given in ChEMBL document CHEMBL1201862, “PubChem BioAssay data set” (2004).
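A five-concentration, 48-hour dose response in 96-well plates underlies each endpoint, interpolated linearly between surrounding concentrations. Abbreviation: GI50, concentration required for 50% inhibition of growth.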 Activity calls are given as the source filed them. Rule as the data show it: active = GI50 up to about 1.1 µM and inactive = higher. Residues, ends and D or L forms follow the SMILES beside them. *: point of attachment. Cbz = O=C(OCc1ccccc1)*

Assays:
Test in all cases: growth of human tumour cells (NCI), 48 h
[1] = test system: PC-3
[2] = test system: NCI-H23
[3] = test system: SNB-19
[4] = test system: OVCAR-3
[5] = test system: SF-539
[6] = test system: BT-549
[7] = test system: KM12
[8] = test system: NCI-H522
[9] = test system: RXF 393
[10] = test system: NCI/ADR-RES
[11] = test system: Hs-578T
[12] = test system: HOP-62
[13] = test system: SF-268
[14] = test system: MDA-MB-435
[15] = test system: SR
[16] = test system: HT-29
[17] = test system: SK-MEL-28
[18] = test system: OVCAR-4
[19] = test system: MOLT-4
[20] = test system: MDA-N

Measured: GI50

CC(CO)(Nc1ccc([N+](=O)[O-])cc1[N+](=O)[O-])C(=O)O (configuration not stated)
inactive: [1] 64.6 µM | [2] 27.8 µM | [3] 43 µM | [4] 22.2 µM | [5] 34 µM | [6] 29.5 µM | [7] 43.5 µM | [8] 18.7 µM | [9] 12.2 µM | [10] 35.5 µM | [11] 17.3 µM | [12] 49.1 µM | [13] 19.3 µM | [14] 21.6 µM | [15] 12.1 µM | [16] 16.7 µM | [17] 22.1 µM

CC(C)C1=CC23CCC4C(C)(C(=O)O)CCCC4(C)C2CC1C1C(=O)N(c2ccc(N4C(=O)C5C6CC7C8(C)CCCC(C)(C(=O)O)C8CCC7(C=C6C(C)C)C5C4=O)cc2)C(=O)C13 (configuration not stated)
inactive: [1] 3.2 µM | [2] 3.79 µM | [3] 4.75 µM | [4] 5.71 µM | [5] 4.3 µM | [7] 4.17 µM | [8] 4.98 µM | [9] 11.7 µM | [18] 10.4 µM | [19] 3.51 µM | [11] 6.22 µM | [12] 5.12 µM | [13] 4.7 µM | [14] 3.68 µM | [15] 3.59 µM | [16] 2.45 µM | [20] 4.43 µM | [17] 4.49 µM

Cc1ccc(S(=O)(=O)N/N=C2\CC(C)OC3=C2CCCCCC3)cc1 (configuration not stated)
inactive: [1] 19.2 µM | [2] 20.5 µM | [3] 22.2 µM | [4] 19.7 µM | [5] 20.5 µM | [7] 19.7 µM | [9] 17.6 µM | [18] 19.8 µM | [19] 14.6 µM | [10] 20.5 µM | [11] 21.2 µM | [12] 18.5 µM | [13] 19.9 µM | [14] 18.5 µM | [15] 17 µM | [16] 17.5 µM | [20] > 100 µM | [17] 22.1 µM

Fc1ccccc1-c1nn2c(C34CC5CC(CC(C5)C3)C4)nnc2s1
inactive: [1] > 100 µM | [2] > 100 µM | [3] > 100 µM | [4] > 100 µM | [5] > 100 µM | [8] > 100 µM | [9] > 100 µM | [18] > 100 µM | [19] > 100 µM | [10] > 100 µM | [11] > 100 µM | [12] > 100 µM | [13] > 100 µM | [14] > 100 µM | [15] > 100 µM | [16] > 100 µM | [20] > 100 µM | [17] > 100 µM

Cc1cccc(N(C(=O)Nc2ccc(Cl)c(Cl)c2)C2=NCC(C)S2)c1 (configuration not stated)
inactive: [1] 43.9 µM | [2] 37.3 µM | [3] > 100 µM | [4] 74.5 µM | [5] 22.7 µM | [7] 18.9 µM | [18] 41.6 µM | [19] 16.2 µM | [10] 28 µM | [11] 32.5 µM | [12] > 100 µM | [13] 23.2 µM | [15] 32.6 µM | [16] 11.4 µM | [20] 32.9 µM | [17] 38.6 µM

CC(=O)c1nc2ccccc2n1CC(=O)c1ccc([N+](=O)[O-])cc1
inactive: [1] 10.4 µM | [2] 31.3 µM | [3] 13.5 µM | [4] 13.5 µM | [5] 22.3 µM | [6] 12.6 µM | [7] 5.46 µM | [8] 2.93 µM | [9] 23.8 µM | [18] 34.8 µM | [19] 5.52 µM | [10] 13.4 µM | [11] 6.68 µM | [12] 5.06 µM | [13] 30.8 µM | [14] 22 µM | [15] 7.45 µM | [16] 15.2 µM | [17] 52.6 µM

C#CCOC(=O)C=[N+]=[N-]
inactive: [1] > 10 µM | [2] > 10 µM | [3] > 10 µM | [4] > 10 µM | [5] > 10 µM | [6] > 10 µM | [7] > 10 µM | [9] > 10 µM | [19] > 10 µM | [12] > 10 µM | [13] > 10 µM | [14] > 10 µM | [15] > 10 µM | [16] > 10 µM | [20] > 10 µM | [17] > 10 µM

O=C1/C(=C/c2cccc(O)c2)COc2ccccc21
inactive: [1] 7.83 µM | [2] 5.74 µM | [3] 7.11 µM | [4] 2.01 µM | [5] 9.86 µM | [6] 15.5 µM | [7] 2.15 µM | [8] 2.51 µM | [9] 10.1 µM | [18] 5.32 µM | [19] 2.24 µM | [10] 2.17 µM | [11] 9.77 µM | [12] 15 µM | [13] 18.4 µM | [14] 5.73 µM | [15] 2.16 µM | [16] 3.27 µM | [17] 4.45 µM

COC(=O)C(Cc1ccccc1I)C1=CCC2(CC1)OCCO2 (configuration not stated)
inactive: [1] 26.9 µM | [2] 26.4 µM | [3] 25.4 µM | [4] 20.8 µM | [5] 63.8 µM | [7] 22.9 µM | [8] 21.4 µM | [9] 14.2 µM | [18] 37.2 µM | [19] 21.4 µM | [10] 18.6 µM | [11] 26.6 µM | [12] 28.9 µM | [13] 41.3 µM | [14] 20 µM | [15] 18 µM | [16] 31.8 µM | [20] 28.6 µM | [17] 48.9 µM

CC(C)(C)OC(=O)N(CCCN)CCCCN
inactive: [1] > 100 µM | [2] > 100 µM | [3] > 100 µM | [4] > 100 µM | [5] > 100 µM | [6] > 100 µM | [7] > 100 µM | [8] > 100 µM | [9] > 100 µM | [18] > 100 µM | [19] > 100 µM | [10] > 100 µM | [11] > 100 µM | [12] > 100 µM | [13] > 100 µM | [14] > 100 µM | [15] > 100 µM | [16] > 100 µM | [17] > 100 µM

O=C(O)/C(=C/C(=O)c1ccc(Cl)cc1)NNc1ccc([N+](=O)[O-])cc1[N+](=O)[O-]
inactive: [1] 36.2 µM | [2] 44.1 µM | [3] 43.4 µM | [4] 33.3 µM | [5] 35.3 µM | [6] 23.2 µM | [7] 51.8 µM | [8] 21.6 µM | [18] 19.7 µM | [19] 42 µM | [10] 45.8 µM | [11] 31.2 µM | [12] 28.4 µM | [13] 38.7 µM | [14] 67.9 µM | [15] 50.9 µM | [16] 64.1 µM | [17] 43.5 µM

CCOC(=O)CCC(NC(=O)OCc1ccccc1)C(=O)NC(CCC(=O)OCC)C(=O)OCC (configuration not stated) (Cbz-Glu(OEt)-Glu(OEt)-OEt; configuration not given here)
inactive: [1] > 100 µM | [2] > 100 µM | [3] > 100 µM | [4] > 100 µM | [5] > 100 µM | [7] > 100 µM | [8] > 100 µM | [9] > 100 µM | [18] > 100 µM | [19] > 100 µM | [10] > 100 µM | [11] > 100 µM | [12] > 100 µM | [13] > 100 µM | [14] > 100 µM | [15] > 100 µM | [16] > 100 µM | [20] > 100 µM | [17] > 100 µM

Cc1ccccc1C1CC(=O)CC(c2ccccc2C)C12C(=O)NC(=S)NC2=O (configuration not stated)
inactive: [1] 22.3 µM | [2] 35.2 µM | [3] 43.4 µM | [4] 29 µM | [5] 20.9 µM | [7] 22.1 µM | [9] 19.6 µM | [18] 37.5 µM | [19] 42.4 µM | [10] 30.3 µM | [11] 29.1 µM | [12] 27.5 µM | [13] 32.7 µM | [14] 20 µM | [15] 37.2 µM | [16] 22.3 µM | [20] 23.6 µM | [17] 20.2 µM

CN1C=COC1N=C1CCCCC1 (configuration not stated)
inactive: [1] > 100 µM | [2] > 100 µM | [3] 4.02 µM | [4] > 100 µM | [5] > 100 µM | [7] > 100 µM | [8] > 100 µM | [9] > 100 µM | [18] > 100 µM | [19] > 100 µM | [10] > 100 µM | [11] > 100 µM | [12] > 100 µM | [13] > 100 µM | [14] > 100 µM | [15] > 100 µM | [16] > 100 µM | [20] > 100 µM | [17] > 100 µM

C=CCC(CC=O)(C(=O)OCC)C(=O)OCC
inactive: [1] > 100 µM | [2] > 100 µM | [3] > 100 µM | [4] > 100 µM | [5] > 100 µM | [7] > 100 µM | [8] > 100 µM | [9] > 100 µM | [18] > 100 µM | [19] > 100 µM | [10] > 100 µM | [11] > 100 µM | [12] > 100 µM | [13] > 100 µM | [14] > 100 µM | [15] > 100 µM | [16] > 100 µM | [20] > 100 µM | [17] > 100 µM
